The values below come from patent US20250197406A1, “INDAZOLES AS HEMATOPOIETIC PROGENITOR KINASE 1 (HPK1) INHIBITORS AND METHODS FOR USING SAME” (1ST Biotherapeutics, Inc., priority 2022, published 2025).

Where a name gives a salt, the structure may show the parent alone. Some results are limits rather than exact numbers.

The IC50 is the midpoint of a concentration-inhibition curve.

This test addresses recombinant human HPK1 (Homo sapiens (Human), UniProt Q92918). Nature of the test: HPK1 kinase assay (Promega ADP-Glo kinase assay). To be noted: In vitro activity against HPK1, 5 ng HPK1, MBP substrate, ATP 25 μM, 30° C. 40 minutes. Format: biochemical. As for the experimental part:
HPK1 kinase activity was measured by Promega's ADP-Glo™ kinase assay. In this assay, 5 ng of recombinant human HPK1 (signalchem) is incubated with 5 μL of compounds (0.5% DMSO), 5 μL of MBP (0.5 μg/μl) and 5 μL of ATP (25 μM) in buffer (40 mM Tris, 7.5; 20 mM MgCl2; 0.1 mg/ml BSA; 50 μM DTT.). The assay was started by incubating the reaction mixture in a 96-well plate at 30° C. for 40 minutes. After the incubation, 25 μL ADP-Glo reagent was added and the reaction was incubated at room temperature for 40-min to stop the reaction and degrade residual ATP. The ADP product was then converted to ATP by adding 50 μL per well of detection reagent. Luminescence was detected after 30-min room temperature incubation with the Molecular device I3X plate reader. The IC50 values were calculated from a series of percent inhibition values determined at a range of inhibitor concentration using software routines as implemented in the GraphPad Prism 7 software and SigmaPlot13.0.
Background: ADP-Glo first removes unused ATP, then detects ADP through luciferase.

Chain of recombinant human HPK1 (Q92918 whole entry): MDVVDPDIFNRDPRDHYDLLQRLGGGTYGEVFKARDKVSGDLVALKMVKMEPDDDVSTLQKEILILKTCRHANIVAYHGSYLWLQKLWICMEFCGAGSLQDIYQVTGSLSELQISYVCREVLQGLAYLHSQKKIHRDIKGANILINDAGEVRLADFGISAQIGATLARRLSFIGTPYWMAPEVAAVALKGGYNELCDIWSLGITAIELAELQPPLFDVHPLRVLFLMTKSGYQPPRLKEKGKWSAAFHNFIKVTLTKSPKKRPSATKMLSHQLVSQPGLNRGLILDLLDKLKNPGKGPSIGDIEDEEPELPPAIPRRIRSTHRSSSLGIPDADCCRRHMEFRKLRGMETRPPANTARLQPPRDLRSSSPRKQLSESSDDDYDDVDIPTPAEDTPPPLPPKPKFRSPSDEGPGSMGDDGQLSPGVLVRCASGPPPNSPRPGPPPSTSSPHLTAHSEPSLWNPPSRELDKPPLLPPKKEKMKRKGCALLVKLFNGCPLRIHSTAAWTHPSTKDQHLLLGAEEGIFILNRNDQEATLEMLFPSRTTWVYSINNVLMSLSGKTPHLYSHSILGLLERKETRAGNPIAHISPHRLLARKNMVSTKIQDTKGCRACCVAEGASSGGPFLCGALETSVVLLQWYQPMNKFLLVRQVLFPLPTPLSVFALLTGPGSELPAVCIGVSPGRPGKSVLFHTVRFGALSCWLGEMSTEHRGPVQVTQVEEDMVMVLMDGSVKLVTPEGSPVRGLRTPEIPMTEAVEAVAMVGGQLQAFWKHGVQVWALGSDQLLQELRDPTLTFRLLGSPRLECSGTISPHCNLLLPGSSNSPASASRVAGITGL

With `CC(C)Nc1c(F)c(Cl)c(-c2cn3cc(NC(=O)c4ccccn4)nc3cn2)c2cn[nH]c12` [Example 58, N-(6-(5-chloro-6-fluoro-7-(isopropylamino)-1H-indazol-4-yl)imidazo[1,2-a]pyrazin-2-yl)picolinamide], the half-inhibitory concentration (IC50) was in the range of 101 to 500 nM.
Turning to `COC(=O)C1OC(N(c2c(F)c(Cl)c(-c3cn4cc(NC(=O)[C@@H]5C[C@@H]5F)nc4cn3)c3cn[nH]c23)C(C)C)C(OC(C)=O)C(OC(C)=O)C1OC(C)=O` (stereo partly drawn) [Example 18, 2-((5-chloro-6-fluoro-4-(2-((1S,2S)-2-fluorocyclopropane-1-carboxamido)imidazo[1,2-a]pyrazin-6-yl)-1H-indazol-7-yl)(isopropyl)amino)-6-(methoxycarbonyl)tetrahydro-2H-pyran-3,4,5-triyl triacetate], the IC50 lay within 101 to 500 nM.
In the case of `CCCCC(=O)Nc1cn2cc(-c3c(Cl)c(F)c(NC(C)C)c4[nH]ncc34)ncc2n1` [Example 117, N-(6-(5-chloro-6-fluoro-7-(isopropylamino)-1H-indazol-4-yl)imidazo[1,2-a]pyrazin-2-yl)pentanamide], the IC50 was < 100 nM.
In the case of `CSC(C)C(=O)Nc1cn2cc(-c3c(Cl)c(F)c(NC(C)C)c4[nH]ncc34)ncc2n1` (centres unmarked) [Example 105, N-(6-(5-chloro-6-fluoro-7-(isopropylamino)-1H-indazol-4-yl)imidazo[1,2-a]pyrazin-2-yl)-2-(methylthio)propanamide], the 50% inhibitory concentration (IC50) lay in the range of 101 to 500 nM.
The figure for `CC(CN)c1c(F)c(C(F)(F)F)c(-c2cn3cc(NC(=O)[C@@H]4C[C@@H]4F)nc3cn2)c2cn[nH]c12` (stereo partly drawn) [Example 98, (1S,2S)-N-(6-(7-(1-aminopropan-2-yl)-6-fluoro-5-(trifluoromethyl)-1H-indazol-4-yl)imidazo[1,2-a]pyrazin-2-yl)-2-fluorocyclopropane-1-carboxamide formate] is < 100 nM.
The figure for `CC(C)Nc1c(F)c(Cl)c(-c2cn3cc(NC(=O)C(F)(F)F)nc3cn2)c2cn[nH]c12` [Example 66, N-(6-(5-chloro-6-fluoro-7-(isopropylamino)-1H-indazol-4-yl)imidazo[1,2-a]pyrazin-2-yl)-2,2,2-trifluoroacetamide] is < 100 nM.
Then `CC(C)Nc1c(F)c(Cl)c(-c2cn3cc(NC(=O)[C@@H]4C[C@@H]4C#N)nc3cn2)c2cn[nH]c12` [Example 51, (1R,2S)-N-(6-(5-chloro-6-fluoro-7-(isopropylamino)-1H-indazol-4-yl)imidazo[1,2-a]pyrazin-2-yl)-2-cyanocyclopropane-1-carboxamide], with < 100 nM; and `COc1c(F)c(C(C)O)c2[nH]ncc2c1-c1cn2cc(NC(=O)[C@@H]3C[C@@H]3F)nc2cn1` (stereo partly drawn) [Example 128, (1S,2S)-2-fluoro-N-(6-(6-fluoro-7-(1-hydroxyethyl)-5-methoxy-1H-indazol-4-yl)imidazo[1,2-a]pyrazin-2-yl)cyclopropane-1-carboxamide], with < 100 nM.
As to `CCNC(=O)[C@H]1C[C@H]1C(=O)Nc1cn2cc(-c3c(Cl)c(F)c(NC(C)C)c4[nH]ncc34)ncc2n1` [Example 29, (1R,2S)-N1-(6-(5-chloro-6-fluoro-7-(isopropylamino)-1H-indazol-4-yl)imidazo[1,2-a]pyrazin-2-yl)-N2-ethylcyclopropane-1,2-dicarboxamide], the IC50 was < 100 nM.
As for `CC(C)Nc1c(F)c(Cl)c(-c2cn3cc(NC(=O)[C@H](C)N)nc3cn2)c2cn[nH]c12` [Example 79, (S)-2-amino-N-(6-(5-chloro-6-fluoro-7-(isopropylamino)-1H-indazol-4-yl)imidazo[1,2-a]pyrazin-2-yl)propanamide], the IC50 was < 100 nM.
Then `CC(C)Nc1c(F)c(C(F)F)c(-c2cn3cc(NC(=O)[C@@H]4C[C@@H]4C#N)nc3cn2)c2cn[nH]c12` [Example 154, (1R,2S)-2-cyano-N-(6-(5-(difluoromethyl)-6-fluoro-7-(isopropylamino)-1H-indazol-4-yl)imidazo[1,2-a]pyrazin-2-yl)cyclopropane-1-carboxamide], with < 100 nM; and `COc1c(F)c(NC(C)C)c2[nH]ncc2c1-c1cn2cc(NC(=O)[C@@H]3C[C@@H]3C#N)nc2cn1` [Example 164, (1R,2S)-2-cyano-N-(6-(6-fluoro-7-(isopropylamino)-5-methoxy-1H-indazol-4-yl)imidazo[1,2-a]pyrazin-2-yl)cyclopropane-1-carboxamide], with < 100 nM; and `COC(c1c(F)c(C)c(-c2cn3cc(NC(=O)[C@@H]4C[C@@H]4F)nc3cn2)c2cn[nH]c12)C1CC1` (stereo partly drawn) [Example 2, (1S,2S)-N-(6-(7-(cyclopropyl(methoxy)methyl)-6-fluoro-5-methyl-1H-indazol-4-yl)imidazo[1,2-a]pyrazin-2-yl)-2-fluorocyclopropane-1-carboxamide], with < 100 nM.
Regarding `Cc1c(F)c(C2=CC(O)CC2)c2[nH]ncc2c1-c1cn2cc(NC(=O)[C@@H]3C[C@@H]3F)nc2cn1` (stereo partly drawn) [Example 15, (1S,2S)-2-fluoro-N-(6-(6-fluoro-7-(3-hydroxycyclopent-1-en-1-yl)-5-methyl-1H-indazol-4-yl)imidazo[1,2-a]pyrazin-2-yl)cyclopropane-1-carboxamide], the IC50 was < 100 nM.
Consider `CC(C)Nc1c(F)c(C(F)F)c(-c2cn3cc(NC(=O)C4CC4)nc3cn2)c2cn[nH]c12` [Example 156, N-(6-(5-(difluoromethyl)-6-fluoro-7-(isopropylamino)-1H-indazol-4-yl)imidazo[1,2-a]pyrazin-2-yl)cyclopropanecarboxamide], for which the IC50 is < 100 nM.
In the case of `CCOC(=O)Nc1cn2cc(-c3c(Cl)c(F)c(NC(C)C)c4[nH]ncc34)ncc2n1` [Example 114, ethyl (6-(5-chloro-6-fluoro-7-(isopropylamino)-1H-indazol-4-yl)imidazo[1,2-a]pyrazin-2-yl)carbamate], the IC50 is < 100 nM.
Then `CC(C)Nc1c(F)c(Cl)c(-c2cn3cc(NC(=O)C(F)F)nc3cn2)c2cn[nH]c12` [Example 122, N-(6-(5-chloro-6-fluoro-7-(isopropylamino)-1H-indazol-4-yl)imidazo[1,2-a]pyrazin-2-yl)-2,2-difluoroacetamide], with < 100 nM.
For the compound `CC(=O)Nc1cn2cc(-c3c(Cl)c(F)c([C@@H](C)NC(=O)C(F)(F)F)c4[nH]ncc34)ncc2n1` [Example 139, (R)-N-(1-(4-(2-acetamidoimidazo[1,2-a]pyrazin-6-yl)-5-chloro-6-fluoro-1H-indazol-7-yl)ethyl)-2,2,2-trifluoroacetamide], the half-inhibitory concentration (IC50) is < 100 nM.
As to `C[C@@H](NC(=O)C(F)(F)F)c1c(F)c(Cl)c(-c2cn3cc(NC(=O)[C@@H]4C[C@@H]4F)nc3cn2)c2cn[nH]c12` [Example 137, (1S,2S)-N-(6-(5-chloro-6-fluoro-7-((R)-1-(2,2,2-trifluoroacetamido)ethyl)-1H-indazol-4-yl)imidazo[1,2-a]pyrazin-2-yl)-2-fluorocyclopropane-1-carboxamide], the IC50 was < 100 nM.
Then `CC(=O)Nc1cn2cc(-c3c(C(F)(F)F)c(F)c(NC(C)C)c4[nH]ncc34)ncc2n1` [Example 83, N-(6-(6-fluoro-7-(isopropylamino)-5-(trifluoromethyl)-1H-indazol-4-yl)imidazo[1,2-a]pyrazin-2-yl)acetamide], with < 100 nM.
For the compound `CC(C)Nc1c(F)c(Cl)c(-c2cn3cc(NC(=O)Cc4cocn4)nc3cn2)c2cn[nH]c12` [Example 144, N-(6-(5-chloro-6-fluoro-7-(isopropylamino)-1H-indazol-4-yl)imidazo[1,2-a]pyrazin-2-yl)-2-(oxazol-4-yl)acetamide], the IC50 was < 100 nM.
Then `C[C@H](N[S@@+]([O-])C(C)(C)C)c1c(F)c(Cl)c(-c2cn3cc(NC(=O)[C@@H]4C[C@@H]4F)nc3cn2)c2cn[nH]c12` [Example 132, (1S,2S)-N-(6-(7-((S)-1-(((S)-tert-butylsulfinyl)amino)ethyl)-5-chloro-6-fluoro-1H-indazol-4-yl)imidazo[1,2-a]pyrazin-2-yl)-2-fluorocyclopropane-1-carboxamide], with < 100 nM; and `CC(C)Nc1c(F)c(C(F)F)c(-c2cn3cc(NC(=O)[C@@H]4C[C@@H]4F)nc3cn2)c2cn[nH]c12` [Example 28, (1S,2S)-N-(6-(5-(difluoromethyl)-6-fluoro-7-(isopropylamino)-1H-indazol-4-yl)imidazo[1,2-a]pyrazin-2-yl)-2-fluorocyclopropane-1-carboxamide], with < 100 nM; and `Cc1c(F)c(C(C)N)c2[nH]ncc2c1-c1cn2cc(NC(=O)[C@@H]3C[C@@H]3F)nc2cn1` (stereo partly drawn) [Example 25, (1S,2S)-N-(6-(7-(1-aminoethyl)-6-fluoro-5-methyl-1H-indazol-4-yl)imidazo[1,2-a]pyrazin-2-yl)-2-fluorocyclopropane-1-carboxamide], with 101 to 500 nM.
The figure for `O=C(Nc1cn2cc(-c3c(C(F)(F)F)c(F)c(C(O)C4CC4)c4[nH]ncc34)ncc2n1)[C@@H]1C[C@@H]1F` (stereo partly drawn) [Example 36, (1S,2S)-N-(6-(7-(cyclopropyl(hydroxy)methyl)-6-fluoro-5-(trifluoromethyl)-1H-indazol-4-yl)imidazo[1,2-a]pyrazin-2-yl)-2-fluorocyclopropane-1-carboxamide] is < 100 nM; for `CCC(=O)N1CC(Oc2c(F)c(Cl)c(-c3cn4cc(NC(C)=O)nc4cn3)c3cn[nH]c23)C1` [Example 149, N-(6-(5-chloro-6-fluoro-7-((1-propionylazetidin-3-yl)oxy)-1H-indazol-4-yl)imidazo[1,2-a]pyrazin-2-yl)acetamide] it is 501 to 1000 nM.
